± gives the expanded uncertainty stated by the source.
Conditions: Hot wire method

FC(F)(F)/C=C/Cl [(E)-1-chloro-3,3,3-trifluoroprop-1-ene]
Conditions	thermal conductivity [W/m/K]
313.49 K, 134 kPa, Gas	0.01209 ± 0.00043
313.66 K, 195 kPa, Gas	0.01193 ± 0.00043
313.74 K, 96 kPa, Gas	0.01156 ± 0.00041
313.74 K, 97 kPa, Gas	0.01206 ± 0.00043
313.81 K, 164 kPa, Gas	0.01205 ± 0.00043
314.19 K, 96 kPa, Gas	0.0121 ± 0.00043
314.29 K, 165 kPa, Gas	0.01203 ± 0.00043
314.47 K, 132 kPa, Gas	0.01204 ± 0.00043
314.68 K, 96 kPa, Gas	0.01213 ± 0.00043
314.8 K, 166 kPa, Gas	0.01203 ± 0.00043
315 K, 133 kPa, Gas	0.01215 ± 0.00043
315.2 K, 96 kPa, Gas	0.01218 ± 0.00043
315.34 K, 166 kPa, Gas	0.01208 ± 0.00043
315.56 K, 132 kPa, Gas	0.01212 ± 0.00043
315.75 K, 96 kPa, Gas	0.01223 ± 0.00044
316.33 K, 96 kPa, Gas	0.01227 ± 0.00044
321.04 K, 25085 kPa, Liquid	0.08832 ± 0.0031
321.04 K, 34321 kPa, Liquid	0.09144 ± 0.0067
321.04 K, 34326 kPa, Liquid	0.09107 ± 0.0085
321.05 K, 43820 kPa, Liquid	0.0947 ± 0.0043
321.1 K, 25070 kPa, Liquid	0.08802 ± 0.0071
321.1 K, 34323 kPa, Liquid	0.09161 ± 0.0064
321.12 K, 34308 kPa, Liquid	0.0914 ± 0.0066
321.12 K, 43822 kPa, Liquid	0.09482 ± 0.004
321.33 K, 16965 kPa, Liquid	0.08442 ± 0.0033
321.34 K, 9798 kPa, Liquid	0.08117 ± 0.0037
321.36 K, 5192 kPa, Liquid	0.07831 ± 0.0031
321.4 K, 197 kPa, Gas	0.0125 ± 0.00044
321.4 K, 16967 kPa, Liquid	0.08432 ± 0.0034
321.41 K, 254 kPa, Gas	0.01268 ± 0.00045
321.41 K, 460 kPa, Liquid	0.07538 ± 0.0077
321.42 K, 66597 kPa, Liquid	0.1039 ± 0.0073
321.43 K, 56114 kPa, Liquid	0.09911 ± 0.014
321.44 K, 5187 kPa, Liquid	0.07816 ± 0.0034
321.44 K, 66587 kPa, Liquid	0.1042 ± 0.0037
321.45 K, 34301 kPa, Liquid	0.09197 ± 0.0078
321.46 K, 43814 kPa, Liquid	0.09486 ± 0.0091
321.47 K, 25082 kPa, Liquid	0.08816 ± 0.0027
321.47 K, 34329 kPa, Liquid	0.09187 ± 0.0095
321.47 K, 43832 kPa, Liquid	0.09487 ± 0.008
321.48 K, 458 kPa, Liquid	0.07551 ± 0.0031
321.51 K, 66615 kPa, Liquid	0.1035 ± 0.0043
321.52 K, 56121 kPa, Liquid	0.0993 ± 0.0037
321.52 K, 66605 kPa, Liquid	0.1041 ± 0.012
321.55 K, 34296 kPa, Liquid	0.09167 ± 0.006
321.55 K, 43839 kPa, Liquid	0.09474 ± 0.0059
321.56 K, 25086 kPa, Liquid	0.08833 ± 0.0027
321.56 K, 34311 kPa, Liquid	0.09191 ± 0.0082
321.63 K, 145 kPa, Gas	0.01268 ± 0.00045
321.7 K, 256 kPa, Gas	0.01247 ± 0.00044
321.72 K, 196 kPa, Gas	0.01245 ± 0.00044
321.77 K, 98 kPa, Gas	0.01281 ± 0.00045
321.78 K, 16953 kPa, Liquid	0.08463 ± 0.0026
321.81 K, 9811 kPa, Liquid	0.08084 ± 0.0025
321.85 K, 5178 kPa, Liquid	0.07845 ± 0.0024
321.86 K, 66588 kPa, Liquid	0.1041 ± 0.0088
321.88 K, 56118 kPa, Liquid	0.1004 ± 0.0031
321.89 K, 16957 kPa, Liquid	0.0846 ± 0.0027
321.91 K, 466 kPa, Liquid	0.07595 ± 0.0031
321.91 K, 9793 kPa, Liquid	0.08062 ± 0.0025
321.92 K, 43825 kPa, Liquid	0.09584 ± 0.0029
321.94 K, 145 kPa, Gas	0.01263 ± 0.00045
321.94 K, 34296 kPa, Liquid	0.09207 ± 0.0043
321.94 K, 43828 kPa, Liquid	0.09571 ± 0.0029
321.96 K, 5173 kPa, Liquid	0.07856 ± 0.0025
321.96 K, 34304 kPa, Liquid	0.09237 ± 0.0031
321.97 K, 142 kPa, Gas	0.01247 ± 0.00044
321.97 K, 25089 kPa, Liquid	0.0883 ± 0.0029
321.97 K, 66599 kPa, Liquid	0.1033 ± 0.0088
321.99 K, 66600 kPa, Liquid	0.1033 ± 0.0088
322 K, 56120 kPa, Liquid	0.09953 ± 0.0032
322.01 K, 257 kPa, Gas	0.01246 ± 0.00044
322.01 K, 259 kPa, Gas	0.01279 ± 0.00045
322.01 K, 462 kPa, Liquid	0.07568 ± 0.0028
322.04 K, 43829 kPa, Liquid	0.09557 ± 0.0032
322.05 K, 99 kPa, Gas	0.01242 ± 0.00044
322.05 K, 194 kPa, Gas	0.01256 ± 0.00045
322.06 K, 34292 kPa, Liquid	0.09256 ± 0.0041
322.06 K, 43826 kPa, Liquid	0.09519 ± 0.0031
322.07 K, 189 kPa, Gas	0.01239 ± 0.00044
322.08 K, 34300 kPa, Liquid	0.09194 ± 0.0046
322.09 K, 98 kPa, Gas	0.01259 ± 0.00045
322.09 K, 25078 kPa, Liquid	0.08798 ± 0.0028
322.22 K, 122 kPa, Gas	0.0128 ± 0.00045
322.23 K, 142 kPa, Gas	0.01241 ± 0.00044
322.25 K, 164 kPa, Gas	0.01289 ± 0.00046
322.27 K, 260 kPa, Gas	0.0128 ± 0.00045
322.29 K, 144 kPa, Gas	0.01276 ± 0.00045
322.3 K, 16963 kPa, Liquid	0.08446 ± 0.0034
322.32 K, 188 kPa, Gas	0.01244 ± 0.00044
322.33 K, 99 kPa, Gas	0.01222 ± 0.00044
322.34 K, 258 kPa, Gas	0.0126 ± 0.00045
322.36 K, 9801 kPa, Liquid	0.08109 ± 0.0026
322.36 K, 66579 kPa, Liquid	0.1031 ± 0.0094
322.38 K, 66598 kPa, Liquid	0.1031 ± 0.0057
322.39 K, 193 kPa, Gas	0.01261 ± 0.00045
322.4 K, 5186 kPa, Liquid	0.07821 ± 0.0024
322.4 K, 56115 kPa, Liquid	0.09929 ± 0.0053
322.44 K, 98 kPa, Gas	0.01281 ± 0.00045
322.44 K, 16945 kPa, Liquid	0.08465 ± 0.0034
322.46 K, 43829 kPa, Liquid	0.09512 ± 0.0042
322.47 K, 43824 kPa, Liquid	0.09516 ± 0.0031
322.49 K, 450 kPa, Liquid	0.07575 ± 0.0023
322.49 K, 9815 kPa, Liquid	0.081 ± 0.0025
322.49 K, 34282 kPa, Liquid	0.09204 ± 0.005
322.5 K, 66578 kPa, Liquid	0.1033 ± 0.0094
322.51 K, 34308 kPa, Liquid	0.0922 ± 0.0037
322.51 K, 66603 kPa, Liquid	0.1032 ± 0.0037
322.52 K, 141 kPa, Gas	0.01234 ± 0.00044
322.54 K, 260 kPa, Gas	0.01283 ± 0.00046
322.54 K, 5172 kPa, Liquid	0.07803 ± 0.0028
322.54 K, 25075 kPa, Liquid	0.08816 ± 0.0028
322.55 K, 123 kPa, Gas	0.01279 ± 0.00045
322.56 K, 164 kPa, Gas	0.0126 ± 0.00045
322.61 K, 99 kPa, Gas	0.01223 ± 0.00044
322.63 K, 187 kPa, Gas	0.01233 ± 0.00044
322.63 K, 440 kPa, Liquid	0.0752 ± 0.0023
322.63 K, 43821 kPa, Liquid	0.09452 ± 0.0034
322.64 K, 143 kPa, Gas	0.0128 ± 0.00045
322.64 K, 34270 kPa, Liquid	0.09178 ± 0.0057
322.66 K, 34302 kPa, Liquid	0.09186 ± 0.0028
322.71 K, 25078 kPa, Liquid	0.08769 ± 0.0027
322.72 K, 259 kPa, Gas	0.01251 ± 0.00044
322.78 K, 192 kPa, Gas	0.01262 ± 0.00045
322.81 K, 141 kPa, Gas	0.01231 ± 0.00044
322.82 K, 99 kPa, Gas	0.01285 ± 0.00046
322.82 K, 260 kPa, Gas	0.01282 ± 0.00046
322.83 K, 123 kPa, Gas	0.01245 ± 0.00044
322.89 K, 123 kPa, Gas	0.01281 ± 0.00045
322.89 K, 164 kPa, Gas	0.01245 ± 0.00044
322.9 K, 164 kPa, Gas	0.01257 ± 0.00045
322.9 K, 16956 kPa, Liquid	0.08425 ± 0.0032
322.91 K, 99 kPa, Gas	0.0122 ± 0.00043
322.91 K, 66592 kPa, Liquid	0.1026 ± 0.0033
322.92 K, 186 kPa, Gas	0.0124 ± 0.00044
322.92 K, 66618 kPa, Liquid	0.1032 ± 0.0033
322.96 K, 56154 kPa, Liquid	0.09964 ± 0.0047
322.97 K, 9802 kPa, Liquid	0.08079 ± 0.0036
323.03 K, 143 kPa, Gas	0.01271 ± 0.00045
323.05 K, 5181 kPa, Liquid	0.07837 ± 0.0024
323.06 K, 43815 kPa, Liquid	0.09535 ± 0.0054
323.07 K, 16973 kPa, Liquid	0.08427 ± 0.0027
323.07 K, 43817 kPa, Liquid	0.09505 ± 0.0053
323.08 K, 66614 kPa, Liquid	0.1032 ± 0.0033
323.1 K, 259 kPa, Gas	0.01262 ± 0.00045
